Assays:
Format in all cases: cell-based, human
γ-secretase [1] = assay: Transiently transfected HEK293 cells, Aβ in the cell medium by ELISA (4G8/6E10); conditions: HEK293 transiently co-transfected; Aβ in cell medium quantified by ELISA
Excerpt: For expression in mammalian cells, the signal peptide in SP2-C-GAL4/VP16-100 was replaced, as described in Example 8, with a mammalian signal peptide derived from the basal membrane protein BM40, which is known for high level expression (SP3; SEQ ID NO. 13). Processing of γ-secretase was monitored by quantifying the secretion of Aβ into the culture medium. The secreted Aβ was detected by a sandwich ELISA using monoclonal antibodies 6E10 and biotinylated 4G8 (Senetek PLC, Napa, Calif., USA; cf. Kim et al., 1990) as capture and detection antibodies, respectively.
(§1) HEK293 cells were co-transfected with the SP3-C55-GAL4/VP16 vector (0.03 μg) and the pGL2-MRG5 luciferase reporter vector (1 μg) in Multi-Well 12 plates.
(§2) Luciferase activity was quantified by the Bright-Glo Luciferase Assay kit (Promega). Aβ in the cell medium was quantified by ELISA, using the antibodies 4G8 and 6E10 (from Senetek), as described in Example 11. These antibodies are specific for amino acids 17-24 (4G8) and 1-17 (6E10) of the Aβ-peptide.

γ-secretase [2] = assay: Stably transfected HEK293 cell clone (SP3-C55-GAL4/VP16 + MRG5-luciferase), luciferase activity; conditions: stably double-transfected HEK293 clone, 24 h treatment; read-out: IC50, inhibition of luciferase activity
Description: HEK293 cells (Human Embryonic Kidney cell line, (ATCC)) were co-transfected with the plasmid SP3-C55-GAL4/VP16 and the luciferase reporter plasmid PGL2-MRG5(described in Example 2).
Subsequently, stable cell lines were selected by incubation with 400 μg/ml Geneticin (GibcoBRL) to select for Neomycin resistant clones and thereafter characterized for stable expression of SP3-C55-GAL4/VP16 and luciferase.
A clone of HEK293 cells that stably express both the SP3-C55-GAL4/VP16 and the MRG5-luciferase constructs was identified according to Example 14.
For the identification of γ-secretase inhibitors, stably double-transfected HEK293 cells (see Example 14) are incubated, in Multi-Well 96 plates, in the presence of the compound(s) under investigation (e.g., compound library screening) at a concentration 10 μM or less in the assay, and luciferase activity is determined 24 hours later. Luciferase activity can be quantified with the Luciferase Assay System kit (Promega), the Bright-Glo Luciferase Assay kit (Promega), or any other method for luciferase quantification. A decrease in luciferase activity reflects a decrease in γ-secretase activity.

γ-secretase [3] = assay: Transiently transfected HEK293 cells (SP3-C55-GAL4/VP16 + pGL2-MRG5 luciferase reporter), luciferase activity; conditions: HEK293 transiently co-transfected with SP3-C55-GAL4/VP16 vector and pGL2-MRG5 luciferase reporter vector; read-out: IC50, inhibition of luciferase activity and Aβ-production
Description: as §1, §2

Row | IC50 (γ-secretase [2]) [nM] | IC50 (γ-secretase [3]) [nM] | Compound | Aβ-production (γ-secretase [1])
1 | 230 | 14 | C[C@H](NC(=O)Cc1cc(F)cc(F)c1)C(=O)N[C@H](C(=O)OC(C)(C)C)c1ccccc1 [DAPT] | inhibited dose-dependently
2 | 130 | 19 | CC(C)C[C@H](NC(=O)[C@H](Cc1ccccc1)C[C@@H](O)[C@H](Cc1ccccc1)NC(=O)OC(C)(C)C)C(=O)N[C@@H](Cc1ccccc1)C(N)=O [L-685,458] | inhibited dose-dependently

Source: patent publication US7892778B2, “Method of screening for gamma-secretase activity” (Sanofi-Aventis Deutschland GmbH, priority 2003, dated 2011)
